Series [1] can be described thus: Organic solvent properties used in the CFD model (Table 2). It is filed as physicochemical. The following applies: for Density / Dynamic viscosity: organic solvent; for Interfacial Tension: organic solvent / water. The text has this:
Principal component analysis (PCA) was used to identify the number of features required to capture the system's behavior. Considering material properties and dimensionless groups of both phases gave a total of 26 features (See Table 1 and definitions in the Supplemental Information (SI) herein below). The dimensionless groups were based on previous work. See, e.g., Chen, supra; Zhao, Y.; Chen, G.; Yuan, Q. “Liquid-liquid two-phase flow patterns in a rectangular microchannel.” AIChE Journal 2006, 52 (12), 4052-4060; Yagodnitsyna, A. A.; Kovalev, A. V.; Bilsky, A. V. “Flow patterns of immiscible liquid-liquid flow in a rectangular microchannel with T-junction.” Chemical Engineering Journal 2016, 303, 547-554; Zhao, C. X.; Middelberg, A. P. J. “Two-phase microfluidic flows.” Chemical Engineering Science 2011, 66 (7), 1394-1411. Apart from PCA, feature importance can rank features for classifying flowpatterns. A clustered covariance matrix may be employed to group dependent variables. We implemented these algorithms using the sklearn library in Python.
FIG. 11a, b, d and FIG. 11c maps the conditions for our experimental and computational flow patterns, respectively. As the diameter increases, different flow conditions (total volumetric flow rate, org/aq (v/v) ratio, various organic solvents) lead to varying patterns. […] For larger diameters, the parallel flow becomes prominent (FIG. 11c). […] At lower experimental flow rates (0.1-10 ml/min), no irregular flow is observed.

The conditions of series [2]: per Chen et al., cited from earlier work; for Diffusivity: HMF in the organic solvent; for Partition Coefficient: HMF, organic solvent/water.
The conditions of series [3]: experimentally shown, Wang et al., cited from earlier work.

The structures appear in SMILES notation. Like-named read-outs stand apart in the source and are kept apart here.

Regarding `CC(=O)CC(C)C` [MIBK, methyl isobutyl ketone], in series [1], the Density stood at 684 kg m^−3, the Dynamic viscosity is listed as 5.85 × 10^−4 Pa · s and the “Interfacial Tension” value is given as 0.0157 N m^−1. In addition, in series [2], the Diffusivity is reported as 2.43 × 10^−9 m^2/s and the “Partition Coefficient” value is given as 1.1 ± 0.03.
As to `CCOC(C)=O` [EtAc, ethyl acetate], in series [1], the Density came out at 900 kg m^−3, the Dynamic viscosity is 4.41 × 10^−4 Pa · s and the “Interfacial Tension” value turned out to be 0.0074 N m^−1. In series [2], the Diffusivity is listed as 2.87 × 10^−9 m^2/s and the “Partition Coefficient” value is on record as 1.4 ± 0.05.
As to `Cc1cccc(O)c1` [m-cresol], the “KHMF (HMF partition coefficient)” value in series [3] (25° C.) was 20.6; in series [3] (150° C.) it was 4.2.
With `CCCC(C)O` (centres unmarked) [2-pentanol], in series [1], the Density was found to be 812 kg m^−3, the Dynamic viscosity was 3.47 × 10^−3 Pa · s and the “Interfacial Tension” value stood at 0.0034 N m^−1. In series [2], the Diffusivity was 3.81 × 10^−10 m^2/s and the “Partition Coefficient” value is recorded as 1.3 ± 0.07.

The record behind these values is patent US20250367631A1, “TWO PHASE FLOWS FOR REACTIONS AND SEPARATIONS” (University of Delaware, priority 2024, published 2025).
